Legend:
[1] = test system: ECHCG; assay: Post-emergence action against ECHCG; format: in vivo, Echinochloa crus-galli; details: post-emergence, dosage 80 g/ha, visual assessment about 3 weeks after treatment vs untreated controls
How it was run: (§1)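 Weeds grown in sandy loam in greenhouse, treated at one-leaf stage (2–3 weeks after sowing) with WP or EC formulations sprayed as aqueous suspension/emulsion at 600 to […] water with 0.2% wetting agent. Visual rating after about 3 weeks versus untreated controls, as % herbicidal action (100% = plants dead, 0% = like control).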

[2] = test system: STEME; assay: Post-emergence action against STEME; format: in vivo, Stellaria media; details: post-emergence, dosage 80 g/ha
How it was run: as §1

[3] = test system: VERPE; assay: Post-emergence action against VERPE; format: in vivo, Veronica persica; details: dosage 80 g/ha
How it was run: as §1

[4] = test system: VERPE; assay: Pre-emergence action against VERPE; format: in vivo, Veronica persica; details: Dosage 320 g/ha, pre-emergence
How it was run: (§2)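 Seeds sown in sandy loam in wood-fiber pots and covered with soil. Greenhouse growth; visual damage scored after 3 weeks versus untreated controls (100% = dead, 0% = like control).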

[5] = test system: HORMU; assay: Post-emergence action against HORMU; format: in vivo, Hordeum murinum; details: dosage 80 g/ha
Method: Seeds of monocotyledonous and dicotyledonous weed and crop plants are laid out in sandy loam soil in wood-fiber pots, covered with soil and cultivated in a greenhouse under good growth conditions. 2 to 3 weeks after sowing, the test plants are treated at the one-leaf stage. The compounds of the invention, formulated in the form of wettable powders (WP) or as emulsion concentrates (EC), are then sprayed onto the green parts of the plants in the form of an aqueous suspension or emulsion at a water application rate equating to […], with addition of 0.2% wetting agent. After the test plants have been left to stand in the greenhouse under optimal growth conditions for about 3 weeks, the action of the preparations is assessed visually in comparison to untreated controls (herbicidal action in percent (%): 100% activity=the plants have died, 0% activity=like control plants). […] At the same time, inventive compounds leave Gramineae crops such as barley, wheat, rye, millet/Sorghum, corn or rice virtually undamaged when applied post-emergence, even at high active ingredient dosages. In addition, some substances are also harmless to dicotyledonous crops such as soya, cotton, oilseed rape, sugar beet or potatoes. Some of the compounds according to the invention have high selectivity and are therefore suitable for controlling unwanted vegetation in agricultural crops by the post-emergence method. The data of Tables B18 to B34 below illustrate, in an exemplary manner, the […] herbicidal action of the compounds according to the invention, the herbicidal activity being stated in percent.

[6] = test system: VIOTR; assay: Pre-emergence action against VIOTR; format: in vivo, Viola tricolor; details: Dosage 320 g/ha, pre-emergence
How it was run: as §2

[7] = test system: POLCO; assay: Post-emergence action against POLCO; format: in vivo, Polygonum convolvulus; details: post-emergence, dosage 80 g/ha
How it was run: as §1

[8] = test system: VIOTR; assay: Post-emergence action against VIOTR; format: in vivo, Viola tricolor; details: post-emergence, dosage 80 g/ha
How it was run: as §1

[9] = test system: PHBPU; assay: Pre-emergence action against PHBPU; format: in vivo, Pharbitis purpurea; details: Dosage 320 g/ha, pre-emergence
How it was run: as §2

[10] = test system: HORMU; assay: Pre-emergence action against HORMU; format: in vivo, Hordeum murinum; details: Dosage 320 g/ha
How it was run: as §2

[11] = test system: PHBPU; assay: Post-emergence action against PHBPU; format: in vivo, Pharbitis purpurea; details: post-emergence, dosage 80 g/ha
How it was run: as §1

[12] = test system: AMARE; assay: Post-emergence action against AMARE; format: in vivo, Amaranthus retroflexus; details: post-emergence, dosage 80 g/ha, visual assessment about 3 weeks after treatment vs untreated controls
How it was run: as §1

[13] = test system: LOLRI; assay: Pre-emergence action against LOLRI; format: in vivo, Lolium rigidum; details: dosage 320 g/ha, scored visually after 3 weeks vs untreated controls
How it was run: as §2

[14] = test system: DIGSA; assay: Pre-emergence action against DIGSA; format: in vivo, Digitaria sanguinalis; details: dosage 320 g/ha, scored visually after 3 weeks vs untreated controls
How it was run: as §2

[15] = test system: SETVI; assay: Pre-emergence action against SETVI; format: in vivo, Setaria viridis; details: pre-emergence, dosage 320 g/ha, scored visually after 3 weeks vs untreated controls
How it was run: as §2

[16] = test system: AVEFA; assay: Post-emergence action against AVEFA; format: in vivo, Avena fatua; details: post-emergence, dosage 80 g/ha, visual assessment about 3 weeks after treatment vs untreated controls
How it was run: as §1

[17] = test system: DIGSA; assay: Post-emergence action against DIGSA; format: in vivo, Digitaria sanguinalis; details: dosage 80 g/ha, visual assessment about 3 weeks after treatment vs untreated controls
How it was run: as §1

[18] = test system: POLCO; assay: Pre-emergence action against POLCO; format: in vivo, Polygonum convolvulus; details: Dosage 320 g/ha, pre-emergence
How it was run: as §2

[19] = test system: ABUTH; assay: Post-emergence action against ABUTH; format: in vivo, Abutilon theophrasti; details: post-emergence, dosage 80 g/ha, visual assessment about 3 weeks after treatment vs untreated controls
How it was run: as §1

[20] = test system: STEME; assay: Pre-emergence action against STEME; format: in vivo, Stellaria media; details: Dosage 320 g/ha, pre-emergence
How it was run: as §2

[21] = test system: SETVI; assay: Post-emergence action against SETVI; format: in vivo, Setaria viridis; details: post-emergence, dosage 80 g/ha, visual assessment about 3 weeks after treatment vs untreated controls
How it was run: as §1

[22] = test system: MATIN; assay: Pre-emergence action against MATIN; format: in vivo, Matricaria inodora; details: Dosage 320 g/ha, pre-emergence
How it was run: as §2

[23] = test system: ALOMY; assay: Post-emergence action against ALOMY; format: in vivo, Alopecurus myosuroides; details: Dosage 80 g/ha, post-emergence
How it was run: as §1

[24] = test system: AMARE; assay: Pre-emergence action against AMARE; format: in vivo, Amaranthus retroflexus; details: pre-emergence, dosage 320 g/ha, scored visually after 3 weeks vs untreated controls
How it was run: as §2

[25] = test system: MATIN; assay: Post-emergence action against MATIN; format: in vivo, Matricaria inodora; details: post-emergence, dosage 80 g/ha, visual assessment about 3 weeks after treatment vs untreated controls
How it was run: as §1

[26] = test system: AVEFA; assay: Pre-emergence action against AVEFA; format: in vivo, Avena fatua; details: dosage 320 g/ha, scored visually after 3 weeks vs untreated controls
How it was run: as §2

[27] = test system: ABUTH; assay: Pre-emergence action against ABUTH; format: in vivo, Abutilon theophrasti; details: pre-emergence, dosage 320 g/ha, scored visually after 3 weeks vs untreated controls
How it was run: as §2

[28] = test system: ECHCG; assay: Pre-emergence action against ECHCG; format: in vivo, Echinochloa crus-galli; details: pre-emergence, dosage 320 g/ha, scored visually after 3 weeks vs untreated controls
How it was run: as §2

[29] = test system: ALOMY; assay: Pre-emergence action against ALOMY; format: in vivo, Alopecurus myosuroides; details: dosage 320 g/ha; pre-emergence; scored visually after 3 weeks vs untreated controls; 100% = plants have died, 0% = like control plants
How it was run: as §2

CCn1nnnc1NC(=O)c1ccc(C(F)(F)F)c(C(=O)C2CC2)c1C1CC1 [2-233]
Post-emergence action against ECHCG (herbicidal action in percent) [1]: 90% | Post-emergence action against STEME [2]: 90 | Post-emergence action against VERPE [3]: 100 | Pre-emergence action against VERPE [4]: 100% | Post-emergence action against HORMU [5]: 90 | Pre-emergence action against VIOTR [6]: 100% | Post-emergence action against POLCO [7]: 80 | Post-emergence action against VIOTR [8]: 90 | Pre-emergence action against PHBPU [9]: 100% | Pre-emergence action against HORMU [10]: 90% | Post-emergence action against PHBPU [11]: 90 | Post-emergence action against AMARE (herbicidal action in percent) [12]: 100% | Pre-emergence action against LOLRI (herbicidal activity) [13]: 90% | Pre-emergence action against DIGSA (herbicidal activity) [14]: 100% | SETVI (Table B8, pre-emergence herbicidal activity) [15]: 100% | Post-emergence action against AVEFA (herbicidal action in percent) [16]: 90% | Post-emergence action against DIGSA (herbicidal action in percent) [17]: 90% | Pre-emergence action against POLCO [18]: 90% | Post-emergence action against ABUTH (herbicidal action in percent) [19]: 100% | Pre-emergence action against STEME [20]: 100% | Post-emergence action against SETVI (herbicidal action in percent) [21]: 90% | Pre-emergence action against MATIN [22]: 100% | Post-emergence action against ALOMY [23]: 90% | Pre-emergence action against AMARE (herbicidal activity) [24]: 100% | Post-emergence action against MATIN (herbicidal action in percent) [25]: 90% | Pre-emergence action against AVEFA (herbicidal activity) [26]: 100% | Pre-emergence action against ABUTH (herbicidal activity) [27]: 100% | Pre-emergence action against ECHCG (herbicidal activity) [28]: 100% | Pre-emergence action against ALOMY (herbicidal activity in percent) [29]: 100%
